According to patent US20100267561A1, “HERBICIDAL PYRIDAZINONE DERIVATIVES” (priority 2007, published 2010):

Experiments:
Assay in all cases: Test E pre-/postemergence plant response
Format in all cases: in vivo
[1] = system: large crabgrass (Digitaria sanguinalis); settings: scale 0 to 100
In short: (§1)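 Pre- and postemergence greenhouse test; compounds formulated in non-phytotoxic solvent with surfactant, postemergence plants 2–18 cm (1- to 4-leaf stage). Visual rating against untreated controls after 14 to 21 days, on a 0 (no effect) to 100 (complete control) scale.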

[2] = system: purple nutsedge (Cyperus rotundus); settings: scale 0 to 100
In short: as §1

[3] = system: naked crabgrass (Digitaria nuda); settings: scale 0 to 100
In short: as §1

[4] = system: common chickweed (Stellaria media); settings: 4 g ai/ha, Postemergence, scale 0 to 100
In short: as §1

[5] = system: common groundsel (Senecio vulgaris); settings: scale 0 to 100
In short: as §1

[6] = system: itchgrass (Rottboellia cochinchinensis); settings: scale 0 to 100
In short: as §1

[7] = system: johnsongrass (Sorghum halepense); settings: scale 0 to 100
In short: as §1

[8] = system: surinam grass (Brachiaria decumbens); settings: scale 0 to 100
In short: as §1

[9] = system: dallisgrass (Paspalum dilatatum); settings: scale 0 to 100
In short: as §1

[10] = system: goosegrass (Eleusine indica); settings: scale 0 to 100
In short: as §1

[11] = system: Italian ryegrass (Lolium multiflorum); settings: scale 0 to 100
In short: as §1

[12] = system: green foxtail (Setaria viridis); settings: scale 0 to 100
In short: as §1

[13] = system: broadleaf signalgrass (Brachiaria platyphylla); settings: scale 0 to 100
In short: as §1

[14] = system: annual bluegrass (Poa annua); settings: scale 0 to 100
In short: as §1

[15] = system: guineagrass (Panicum maximum); settings: scale 0 to 100
In short: as §1

Compound: CCc1cc(-c2ccc(C(F)(F)F)cc2)nn1-c1c(OS(C)(=O)=O)cnn(C)c1=O [Compound 19]
- Plant response rating, Crabgrass, Large ([1]; 4 g ai/ha, Postemergence): 30
- Plant response rating, Crabgrass, Large ([1]; 8 g ai/ha, Preemergence): 15
- Plant response rating, Crabgrass, Large ([1]; 16 g ai/ha, Preemergence): 95
- Plant response rating, Crabgrass, Large ([1]; 31 g ai/ha, Preemergence): 100
- Plant response rating, Crabgrass, Large ([1]; Postemergence, 8 g ai/ha): 40
- Plant response rating, Crabgrass, Large ([1]; Postemergence, 16 g ai/ha): 60
- Plant response rating, Crabgrass, Large ([1]; Postemergence, 31 g ai/ha): 80
- Plant response rating, Crabgrass, Large ([1]; Preemergence, 4 g ai/ha): 0
- Plant response rating, Nutsedge, Purple ([2]; 4 g ai/ha, Postemergence): 0
- Plant response rating, Nutsedge, Purple ([2]; Postemergence, 16 g ai/ha): 0
- Plant response rating, Nutsedge, Purple ([2]; Preemergence, 4 g ai/ha): 0
- Plant response rating, Crabgrass, Naked ([3]; 4 g ai/ha, Postemergence): 40
- Plant response rating, Crabgrass, Naked ([3]; 8 g ai/ha, Preemergence): 98
- Plant response rating, Crabgrass, Naked ([3]; 31 g ai/ha, Preemergence): 98
- Plant response rating, Crabgrass, Naked ([3]; Postemergence, 8 g ai/ha): 85
- Plant response rating, Crabgrass, Naked ([3]; Postemergence, 16 g ai/ha): 90
- Plant response rating, Crabgrass, Naked ([3]; Postemergence, 31 g ai/ha): 98
- Plant response rating, Crabgrass, Naked ([3]; Preemergence, 4 g ai/ha): 35
- Plant response rating, Chickweed [4]: 0
- Plant response rating, Groundsel ([5]; 4 g ai/ha, Postemergence): 0
- Plant response rating, Groundsel ([5]; 16 g ai/ha, Preemergence): 0
- Plant response rating, Groundsel ([5]; 31 g ai/ha, Preemergence): 0
- Plant response rating, Groundsel ([5]; Postemergence, 8 g ai/ha): 0
- Plant response rating, Groundsel ([5]; Postemergence, 16 g ai/ha): 0
- Plant response rating, Groundsel ([5]; Postemergence, 31 g ai/ha): 0
- Plant response rating, Groundsel ([5]; Preemergence, 4 g ai/ha): 0
- Plant response rating, Itchgrass ([6]; 4 g ai/ha, Postemergence): 0
- Plant response rating, Itchgrass ([6]; 16 g ai/ha, Preemergence): 65
- Plant response rating, Itchgrass ([6]; 31 g ai/ha, Preemergence): 80
- Plant response rating, Itchgrass ([6]; Postemergence, 8 g ai/ha): 20
- Plant response rating, Itchgrass ([6]; Postemergence, 16 g ai/ha): 70
- Plant response rating, Itchgrass ([6]; Postemergence, 31 g ai/ha): 80
- Plant response rating, Itchgrass ([6]; Preemergence, 4 g ai/ha): 10
- Plant response rating, Johnsongrass ([7]; 4 g ai/ha, Postemergence): 90
- Plant response rating, Johnsongrass ([7]; 16 g ai/ha, Preemergence): 95
- Plant response rating, Johnsongrass ([7]; 31 g ai/ha, Preemergence): 98
- Plant response rating, Johnsongrass ([7]; Postemergence, 8 g ai/ha): 90
- Plant response rating, Johnsongrass ([7]; Postemergence, 16 g ai/ha): 100
- Plant response rating, Johnsongrass ([7]; Postemergence, 31 g ai/ha): 100
- Plant response rating, Johnsongrass ([7]; Preemergence, 4 g ai/ha): 75
- Plant response rating, Surinam Grass ([8]; 4 g ai/ha, Postemergence): 35
- Plant response rating, Surinam Grass ([8]; 16 g ai/ha, Preemergence): 100
- Plant response rating, Surinam Grass ([8]; 31 g ai/ha, Preemergence): 100
- Plant response rating, Surinam Grass ([8]; Postemergence, 8 g ai/ha): 70
- Plant response rating, Surinam Grass ([8]; Postemergence, 16 g ai/ha): 95
- Plant response rating, Surinam Grass ([8]; Postemergence, 31 g ai/ha): 100
- Plant response rating, Surinam Grass ([8]; Preemergence, 4 g ai/ha): 50
- Plant response rating, Dallisgrass ([9]; 4 g ai/ha, Postemergence): 0
- Plant response rating, Dallisgrass ([9]; 8 g ai/ha, Preemergence): 40
- Plant response rating, Dallisgrass ([9]; 16 g ai/ha, Preemergence): 90
- Plant response rating, Dallisgrass ([9]; 31 g ai/ha, Preemergence): 95
- Plant response rating, Dallisgrass ([9]; Postemergence, 8 g ai/ha): 30
- Plant response rating, Dallisgrass ([9]; Postemergence, 16 g ai/ha): 60
- Plant response rating, Dallisgrass ([9]; Postemergence, 31 g ai/ha): 75
- Plant response rating, Dallisgrass ([9]; Preemergence, 4 g ai/ha): 20
- Plant response rating, Goosegrass ([10]; 4 g ai/ha, Postemergence): 0
- Plant response rating, Goosegrass ([10]; 8 g ai/ha, Preemergence): 40
- Plant response rating, Goosegrass ([10]; 16 g ai/ha, Preemergence): 70
- Plant response rating, Goosegrass ([10]; 31 g ai/ha, Preemergence): 90
- Plant response rating, Goosegrass ([10]; Postemergence, 8 g ai/ha): 25
- Plant response rating, Goosegrass ([10]; Postemergence, 16 g ai/ha): 60
- Plant response rating, Goosegrass ([10]; Postemergence, 31 g ai/ha): 75
- Plant response rating, Goosegrass ([10]; Preemergence, 4 g ai/ha): 15
- Plant response rating, Ryegrass, Italian ([11]; 4 g ai/ha, Postemergence): 50
- Plant response rating, Ryegrass, Italian ([11]; 16 g ai/ha, Preemergence): 100
- Plant response rating, Ryegrass, Italian ([11]; 31 g ai/ha, Preemergence): 100
- Plant response rating, Ryegrass, Italian ([11]; Postemergence, 8 g ai/ha): 90
- Plant response rating, Ryegrass, Italian ([11]; Postemergence, 16 g ai/ha): 100
- Plant response rating, Ryegrass, Italian ([11]; Postemergence, 31 g ai/ha): 100
- Plant response rating, Ryegrass, Italian ([11]; Preemergence, 4 g ai/ha): 65
- Plant response rating, Foxtail, Green ([12]; 4 g ai/ha, Postemergence): 20
- Plant response rating, Foxtail, Green ([12]; 8 g ai/ha, Preemergence): 40
- Plant response rating, Foxtail, Green ([12]; 16 g ai/ha, Preemergence): 65
- Plant response rating, Foxtail, Green ([12]; 31 g ai/ha, Preemergence): 100
- Plant response rating, Foxtail, Green ([12]; Postemergence, 8 g ai/ha): 90
- Plant response rating, Foxtail, Green ([12]; Postemergence, 16 g ai/ha): 95
- Plant response rating, Foxtail, Green ([12]; Postemergence, 31 g ai/ha): 100
- Plant response rating, Foxtail, Green ([12]; Preemergence, 4 g ai/ha): 0
- Plant response rating, Signalgrass ([13]; 4 g ai/ha, Postemergence): 65
- Plant response rating, Signalgrass ([13]; 16 g ai/ha, Preemergence): 80
- Plant response rating, Signalgrass ([13]; 31 g ai/ha, Preemergence): 80
- Plant response rating, Signalgrass ([13]; Postemergence, 8 g ai/ha): 80
- Plant response rating, Signalgrass ([13]; Postemergence, 16 g ai/ha): 98
- Plant response rating, Signalgrass ([13]; Postemergence, 31 g ai/ha): 98
- Plant response rating, Signalgrass ([13]; Preemergence, 4 g ai/ha): 40
- Plant response rating, Bluegrass ([14]; 4 g ai/ha, Postemergence): 0
- Plant response rating, Bluegrass ([14]; 8 g ai/ha, Preemergence): 0
- Plant response rating, Bluegrass ([14]; 16 g ai/ha, Preemergence): 0
- Plant response rating, Bluegrass ([14]; 31 g ai/ha, Preemergence): 0
- Plant response rating, Bluegrass ([14]; Postemergence, 8 g ai/ha): 0
- Plant response rating, Bluegrass ([14]; Postemergence, 16 g ai/ha): 0
- Plant response rating, Bluegrass ([14]; Postemergence, 31 g ai/ha): 0
- Plant response rating, Bluegrass ([14]; Preemergence, 4 g ai/ha): 0
- Plant response rating, Guineagrass ([15]; 4 g ai/ha, Postemergence): 80
- Plant response rating, Guineagrass ([15]; 16 g ai/ha, Preemergence): 100
- Plant response rating, Guineagrass ([15]; 31 g ai/ha, Preemergence): 100
- Plant response rating, Guineagrass ([15]; Postemergence, 8 g ai/ha): 90
- Plant response rating, Guineagrass ([15]; Postemergence, 16 g ai/ha): 95
- Plant response rating, Guineagrass ([15]; Postemergence, 31 g ai/ha): 98
- Plant response rating, Guineagrass ([15]; Preemergence, 4 g ai/ha): 60
